The values below are quoted from earlier work in patent US20120184504A1, “"The Use of a PAR-1 Antagonist in Combination with a P2Y12 ADP Receptor Antagonist for Inhibition of Thrombosis"” (priority 2009, published 2012).

Read-outs that look alike come from different tables or passages of the source.

The subject of series [1] is CFRs (coronary thrombus formation). To be noted: pigs, cited from earlier work.
Series [2] deals with clinical events and bleeding in patients with acute coronary syndromes. Particulars: cited from earlier work.
The test system of series [3] is ischemic events and bleeding in patients. Particulars: two phase 2 trials; cited from earlier work.

Consider `COC(=O)[C@H](c1ccccc1Cl)N1CCc2sccc2C1` [clopidogrel], for which the “effect on CFRs” value in series [1] (clopidogrel alone 5 mg/kg) is “reduced, but did not completely abolish”.

As to `CC(=O)Oc1ccccc1C(=O)O` [aspirin], the “effect on CFRs” value in series [1] (aspirin alone 7 mg/kg) was “reduced, but did not completely abolish”.

As for `CC(=O)Oc1cc2c(s1)CCN(C(C(=O)C1CC1)c1ccccc1F)C2` (stereo not drawn) [prasugrel], the “remaining prevalence of clinical events” value in series [2] is 10%. In addition, the “incremental reduction in clinical events” value in series [2] (prasugrel versus clopidogrel) is listed as 19%.

`CCOC(=O)N[C@@H]1CC[C@@H]2[C@@H](C1)C[C@H]1C(=O)O[C@H](C)[C@H]1[C@H]2/C=C/c1ccc(-c2cccc(F)c2)cn1` [SCH 530348]: in series [3], the bleeding result was “without an accompanying increase in bleeding” and the “incidence of ischemic events” value is “strong trends towards reduced incidence of ischemic events”.
